Type in all cases: functional
Assay [1] is filed under the species Rattus norvegicus. The experiment in a line: Antiexudative activity in rat assessed as inhibition of exudate formation in granuloma pouch at 0.02 umol compound injected into pouch on day 5 measured on day 11 relative to control.
For assay [2], the species on record is Rattus norvegicus. The experiment in a line: Antiexudative activity in rat assessed as inhibition of exudate formation in granuloma pouch at 0.002 umol compound injected into pouch on day 5 measured on day 11 relative to control.
Assay [3] has as its system Homo sapiens. The experiment in a line: Vasoconstrictive activity in human at 0.02 to 0.18 ug applied topically by paper-patch test relative to betamethasone 17-valerate.
The subject of assay [4] is Rattus norvegicus. The experiment in a line: Antiexudative activity in rat assessed as inhibition of exudate formation in granuloma pouch at 0.02 umol, sc administered from day 2 to day 10 measured on day 11 relative to control.
In assay [5] the test system is Rattus norvegicus. The experiment in a line: Antiexudative activity in rat assessed as inhibition of exudate formation in granuloma pouch at 0.002 umol, sc administered from day 2 to day 10 measured on day 11 relative to control.

Structures are written as SMILES.

As for `CC(=O)O[C@]1(C(C)=O)CC[C@H]2[C@@H]3C[C@H](F)C4=CC(=O)C=C[C@]4(C)[C@@]3(F)[C@@H](O)C[C@@]21C`, the “inhibition (INH)” value stood at 13% in assay [1] and 18% in assay [2]. The “fold change (FC)” value in assay [3] was 1.5.
The like results for `CCC(=O)O[C@]1(C(C)=O)CC[C@H]2[C@@H]3C[C@H](F)C4=CC(=O)C=C[C@]4(C)[C@@]3(F)[C@@H](O)C[C@@]21C` were, in that order, 67%, 47% and 2.5.
On to `C[C@]12C=CC(=O)C=C1[C@@H](F)C[C@H]1[C@@H]3CC[C@](OC(=O)c4ccccc4)(C(=O)CO)[C@@]3(C)C[C@H](O)[C@@]12F`, for which the “inhibition (INH)” value in assay [1] came to 70%; in assay [4], 62%; in assay [2], 46%; in assay [5], 20%.
Take `CCC(=O)O[C@]1(C(=O)CO)CC[C@H]2[C@@H]3C[C@H](F)C4=CC(=O)C=C[C@]4(C)[C@@]3(F)[C@@H](O)C[C@@]21C`: the “inhibition (INH)” value in assay [1] is listed as 41%; in assay [2], <5%.
For `CCCC(=O)O[C@]1(C(C)=O)CC[C@H]2[C@@H]3C[C@H](F)C4=CC(=O)C=C[C@]4(C)[C@@]3(F)[C@@H](O)C[C@@]21C`, the “inhibition (INH)” value was 81% in assay [1] and 60% in assay [2]. Besides, the “fold change (FC)” value in assay [3] was 2.5.
`CC(=O)[C@@]1(OC(=O)c2ccccc2)CC[C@H]2[C@@H]3C[C@H](F)C4=CC(=O)C=C[C@]4(C)[C@@]3(F)[C@@H](O)C[C@@]21C`: the “inhibition (INH)” value is recorded as 90% in assay [1], 35% in assay [4], 71% in assay [2] and <5% in assay [5]. In addition, in assay [3], the “fold change (FC)” value is given as “<=1”.
